Assay results reported in US12594257B2, “Means and methods for improving anti-tumoral efficacy of transmembrane channel protein blockers” (ARDAN PHARMA S.A.S., priority 2021, dated 2026).
Entries after “also recorded” stand apart in the source; their conditions may differ. Like-named read-outs stand apart in the source and are kept apart here.

Key:
murine cancer models = details: cited from earlier work; for Tumor growth, preventive protocol: before tumor establishment
[1] = mouse, in vivo; cited from earlier work
CD11c+ splenic DCs = assay: Antigen cross-presentation assay in mouse splenic dendritic cells (B3Z T cell activation, β-galactosidase readout); type: cell-based
Protocol: Antigen cross-presentation assays in mouse splenic dendritic cells: To obtain splenic DCs, spleen of C57BL/6 mice was extracted, cut into small pieces and treated with collagenase-D (Roche, Merck). After 30 minutes of incubation at 37° C., the enzymatic reaction was stopped with a 10 mM EDTA solution. Lysis of red blood cells was performed with an ammonium chloride solution. Finally, cells were washed with PBS/SFB1%. […] Briefly, splenic cells were labeled with anti-CD11c antibodies conjugated to the beads. The cells were allowed to pass through a magnetic column subjected to a magnetic field. Thereby, CD11c^+ cells were retained on the column. […]
CD11c^+ spleen cells were incubated with 3 mg/mL of soluble OVA, or OVA plus 20 μM of free (+)-BayK8644, 20 μM of (+)-BayK8644 encapsulated into chitosan nanoparticles (NP-BayK8644) or empty counterpart (eNP) for 4 hours in supplemented-RPMI medium. […] The activation of B3Z cell line was measured detecting β-galactosidase activity by optical density (absorbance at 595-655 nm) using chlorophenol red-β-D-galactopyranoside (CPRG; Roche) as substrate for the reaction.
(+)-BayK8644 inhibits antigen cross-presentation by splenic DCs in vitro: We first studied whether (+)-BayK8644 inhibits antigen cross-presentation in vitro. […] B3Z T cell activation was measured by assessing β-galactosidase activity in a colorimetric assay. […]

E.G7-OVA thymic lymphoma = assay: Therapeutic treatment of established E.G7-OVA tumors, intratumoral injection; type: in vivo, mouse; details: WT mice, established EG7 tumors, i.t. 70 nmoles every two days, five injections; vs eNPs or vehicle
Protocol: Tumor Models and Treatments: WT and Tmem176b^−/− C57BL/6 mice were injected s.c with 0.5×10^6 E.G7-OVA thymic lymphoma cells. At the indicated experiment, injection was performed alternating one Tmem176b and one Tmem176b^−/− mouse until completing both groups. In treated animals, alternation was done between (+)-BayK8644- and vehicle-treated animals or NP-BayK8644 and eNP-treated animals. Tumor growth was caliper measured manually every 2-3 days, and the two major diameters were taken. 70 nmoles of free (+)-BayK8644 or (+)-BayK8644 encapsulated in chitosan nanoparticles, or the same amount of empty NPs injections were repeated at the +2, +4, +6, +8 days after the first injection. Mice were sacrificed when one of the major tumor diameters reached 2 cm.
WT and Tmem176b^−/− animals were inoculated with EG7 tumors. Once tumors reached 25 mm^2, animals were i.t. injected with 70×10^−9 moles of (+)-BayK8644, NP-PEG-BayK8644 or eNP-PEG. Treatments were repeated every two days reaching a total of five injections. Mice were euthanized when the longer diameter reached tumors reached […].

[2] = tested on: L-type voltage-gated Ca2+ channels; details: cited from earlier work

COC(=O)C1=C(C)NC(C)=C([N+](=O)[O-])C1c1ccccc1C(F)(F)F (single isomer, unassigned; (+)) [(+)-BayK8644]
Tumor growth, preventive protocol (murine cancer models): controlled tumor growth; also recorded: controlled its growth | Tumor growth, preventive protocol (murine cancer models; listed as BayK8644): controlled tumor growth | Caspase-1 activation in the TDLN (murine cancer models; i.p): increased Caspase-1 activation | Tumor growth, therapeutic protocol (murine cancer models; mice bearing established tumors): failed to do so | Toxicities in mice [1]: not associated with toxicities | B3Z T cell activation by DCs loaded with OVA protein (cross-presentation) (CD11c+ splenic DCs; 3 mg/ml soluble OVA 4 hours, 10 μM or 20 μM): significantly decreased their capacity to activate B3Z cells | B3Z T cell activation by DCs loaded with OVA peptide SIINFEKL (CD11c+ splenic DCs; SIINFEKL 45 minutes, 20 μM): did not inhibit activation of B3Z cells | Mouse survival (E.G7-OVA thymic lymphoma): failed | Tumor growth (E.G7-OVA thymic lymphoma): failed to control tumor growth | Effect on L-type Ca++ channels [2]: inhibitor

COC(=O)C1=C(C)NC(C)=C([N+](=O)[O-])C1c1ccccc1C(F)(F)F (single isomer, unassigned; (-)) [(−)-BayK8644]
Effect on L-type Ca++ channels [2]: agonists
